Experimental findings from US20050148633A1 (priority 2003, published 2005) are described below.

The test system of one test is IL-2 production. Kind of test: Inhibition of IL-2 production in PHA-activated Jurkat cells (ELISA). Format: cell-based. Conditions: Homo sapiens, PHA 2.5 μg/mL, 20 hours, value bins. The procedure:
Jurkat cells were placed in a 96 well plate (0.5 million cells per well in 1% FBS medium) then test compounds of this invention were added at different concentrations. After 10 minutes, the cells were activated with PHA (final concentration 2.5 μg/mL) and incubated for 20 hours at 37° C. under CO2. The final volume was 200 μL. Following incubation, the cells were centrifuged and the supernatants collected and stored at −70° C. prior to assaying for IL-2 production. A commercial ELISA kit (IL-2 Eli-pair, Diaclone Research, Besancon, France) was used to detect production of IL-2, from which dose response curves were obtained. The IC50 value was calculated as the concentration at which 50% of maximum IL-2 production after stimulation was inhibited versus a non-stimulation control.
By IC50 is commonly meant the concentration that gives 50% inhibition. `Fc1cccc(F)c1CNc1ccc(-c2cc(C(F)(F)F)ccc2C(F)(F)F)cc1` [Compound 127, N-(2′,5′-bis-trifluoromethyl-biphenyl-4-yl)-2,6-difluoro-benzyl amine] yielded an IC50 below 100 nM.

Consider `Cc1nnsc1C(=O)Nc1ccc(-c2cc(OC(F)(F)F)ccc2N(C)C)cc1` [Compound 73, 4-methyl-[1,2,3]-thiadiazole-5-carboxylic acid {2′-(N,N-dimethylamino)-5′-trifluoromethoxybiphenyl-4-yl}-amide], for which the IC50 is below 100 nM.

Consider `Cc1cnccc1C(=O)Nc1ccc(-c2cc(C(F)(F)F)ccc2C(F)(F)F)cc1` [Compound 64, 3-methyl-pyridine-4-carboxylic acid (2′,5′-bis-trifluoromethyl-biphenyl-4-yl)-amide], for which the IC50 is below 100 nM.

For the compound `COc1ccc(OC)c(-c2ccc(NC(=O)c3ccncc3C)cc2)c1` [Compound 63, 3-methyl-pyridine-4-carboxylic acid (2′,5′-dimethoxy-biphenyl-4-yl)-amide], the IC50 was below 100 nM.

In the case of `O=C(Nc1ccc(-c2cc(Cl)ccc2Cl)cc1)c1c(F)cccc1F` [Compound 88, N-(2′,5′-dichlorobiphenyl-4-yl)-2,6-difluorobenzamide], the IC50 was below 100 nM.

As to `Cc1ccc(C(F)(F)F)c(-c2ccc(NC(=O)c3c(F)cccc3F)cc2)c1` [Compound 126, N-(2′-trifluoromethyl-5′-methyl-biphenyl-4-yl)-2,6-difluoro-benzamide], the half-maximal inhibitory concentration (IC50) was below 100 nM.

`Cc1c(F)cccc1C(=O)Nc1ccc(-c2cc(C(F)(F)F)ccc2C(F)(F)F)cc1` [Compound 55, N-(2′,5′-bis-trifluoromethyl-biphenyl-4-yl)-2-methyl-3-fluorobenzamide] had an IC50 below 100 nM.

Compound `CCOc1ccc(Cl)cc1-c1ccc(NC(=O)c2ccncc2C)cc1` [Compound 82, 3-methyl-pyridine-4-carboxylic acid (2′-ethoxy-5′-chlorobiphenyl-4-yl)-amide] registered an IC50 below 100 nM.

In turn, `Cc1noc(C)c1C(=O)Nc1ccc(-c2cc(C(F)(F)F)ccc2C(F)(F)F)cc1` [Compound 43, 3,5-dimethylisoxazole-4-carboxylic acid (2′,5′-bis-trifluoromethyl-biphenyl-4-yl)-amide] gave a concentration for half-maximal inhibition (IC50) below 100 nM.

`Cc1ccc(C)c(-c2ccc(NC(=O)c3c(F)cccc3F)cc2)c1` [Compound 87, N-(2′,5′-dimethylbiphenyl-4-yl)-2,6-difluorobenzamide] returned an IC50 below 100 nM.

For `O=C(Nc1ccc(-c2cc(C(F)(F)F)ccc2C(F)(F)F)cc1)c1csnn1` [Compound 41, [1,2,3]-Thiadiazole-4-carboxylic acid (2′,5′-bis-trifluoromethyl-biphenyl-4-yl)-amide], the IC50 was in the range of 100 to 500 nM.

In the case of `CCc1ccc(CC)c(-c2ccc(NC(=O)c3ccncc3C)cc2)c1` [Compound 79, 3-methyl-pyridine-4-carboxylic acid (2′,5′-diethylbiphenyl-4-yl)-amide], the IC50 was below 100 nM.

The test is the same for the next values; noted with them: Homo sapiens, PHA, bin 500 nM-1 μM.
For `O=C(Nc1ccc(-c2cc(C(F)(F)F)ccc2C(F)(F)F)cc1)c1cccc2c1OCCO2` [Compound 61, 2,3-dihydro-benzo[1,4]dioxine-5-carboxylic acid (2′,5′-bis-trifluoromethyl-biphenyl-4-yl)-amide], the IC50 was in the range of 500 to 1000 nM.

The same test, now with this note: Homo sapiens, PHA, bin >1 μM.
For `CN(C)C(=O)c1ccccc1-c1ccc(NC(=O)c2cccc(F)c2F)cc1` [Compound 6, 4′-(2,3-Difluoro-benzoylamino)-biphenyl-2-carboxylic acid dimethylamide], the IC50 is above 1000 nM.

In the case of `Cc1nc(C(=O)Nc2ccc(-c3ccccc3C(F)(F)F)cc2)c(C(F)(F)F)o1` [Compound 13, 2-Methyl-5-trifluoromethyl-oxazole-4-carboxylic acid (2′-trifluoromethyl-biphenyl-4-yl)-amide], the half-maximal inhibitory concentration (IC50) is above 1000 nM.

Consider `O=C(Nc1ccc(-c2ccccc2C(F)(F)F)cc1F)c1cccc(F)c1F` [Compound 17, 2,3-Difluoro-N-(3-fluoro-2′-trifluoromethyl-biphenyl-4-yl)-benzamide], for which the IC50 is above 1000 nM.
